In US12729377B2, “RNAi agents and compositions for inhibiting expression of angiopoietin-like 3 (ANGPTL3), and methods of use” (Arrowhead Pharmaceuticals, Inc., priority 2017, dated 2026):
In the oligonucleotide strings, read from the 5' end, every base follows the letter of its sugar. An asterisk marks phosphorothioate; unmarked linkages are phosphodiester. Other units and linkages are bracketed, terminal groups are in braces. A string of capitals states the bases alone. {NAG37} = tridentate N-acetyl-galactosamine targeting ligand, structure (NAG37)s; [invAb] = inverted abasic unit; m = 2'-O-methyl; f = 2'-fluoro

Key:
ANGPTL3 gene [1] = test: Example 9: serum HDL in cynomolgus monkeys; assay type: in vivo, cynomolgus macaque (Macaca fascicularis); conditions: 2.0 mg/kg single SC injection day 1, cynos, n=3
Experimental: (§1) Additional ANGPTL3 RNAi agents were evaluated in cynomolgus monkeys. On day 1, cynomolgus macaque (Macaca fascicularis) primates (also referred to herein as “cynos”) were administered a single subcutaneous injection of 0.3 mL/kg (approximately 2-3 mL volume, depending on animal mass) containing 2.0 mg/kg of an ANGPTL3 RNAi agent, which included either AD05488, AD05743, AD05775, or AD05841, each formulated in saline. […] ANGPTL3 RNAi agents AD05488, AD05743, and AD05775 included nucleotide sequences designed to target position 304 of the ANGPTL3 gene. ANGPTL3 RNAi agent AD05841 included nucleotide sequences designed to target position 1035 of the ANGPTL3 gene.
(§2) Three (3) cynos in each group were tested (n=3). Blood samples were drawn and serum samples were analyzed on days −14 (predose), −7 (predose), 1 (pre-dose), 8, 15, 22, 29, and 35. Cynos were fasted overnight prior to each collection. ANGPTL3 protein levels in serum were measured by ELISA assay (R&D Systems), according to the manufacturer's recommendations. Triglycerides, total cholesterol, high-density lipoprotein (HDL), and low-density lipoprotein (LDL) in serum were measured on a Cobas® Integra 400 (Roche Diagnostics), according to the manufacturer's recommendations.
(§3) The ANGPTL3 protein levels, triglyceride levels, total cholesterol levels, HDL levels, and LDL levels for each animal were normalized. For normalization, the level of ANGPTL3 protein, triglyceride, HDL, and total cholesterol, respectively, for each animal at a time point, was divided by the average pre-treatment level of expression in that animal (in this case at days −14, −7, and 1) to determine the ratio of expression “normalized to pre-treatment.”

ANGPTL3 gene [2] = test: Example 9: serum LDL in cynomolgus monkeys; assay type: in vivo, cynomolgus macaque (Macaca fascicularis); conditions: 2.0 mg/kg single SC injection day 1, cynos, n=3
Experimental: as §1, §2, §3

ANGPTL3 mRNA = test: Example 12: liver ANGPTL3 mRNA by RT-qPCR in LDLR knockout mice; assay type: in vivo, LDLR KO mice; conditions: for Avg Relative ANGPTL3 mRNA, Normalized to Control: normalized to Group 1 day 15
Description: To evaluate the effect of RNAi agent administration in a disease model, mice having a genetic mutation for the LDL receptor (referred to herein as LDLR KO mice) were commercially obtained (The Jackson Laboratory). The LDLR KO mice are homozygous for the Ldlr^tm1Her mutation, and have elevated serum cholesterol levels, particularly when placed on a high fat diet. For three weeks prior to the onset of the study, thirty-nine (39) LDLR KO mice were placed on a high fat diet (Teklad Custom Diets TD.88137). An additional eight (8) LDLR KO mice were placed on a normal chow diet over the same three-week period. Pre-dose serum samples were taken on day −15 and day −1 after a four hour fast. At day 1, each mouse was given a single subcutaneous administration of 200 μl/30 g animal body weight containing the respective mg/kg dose of an ANGPTL3 RNAi agent in D5W (dextrose in 5% water), control (D5W) with no RNAi agent, or a control RNAi agent that included a nucleotide sequence designed to target the Hepatitis B Virus (HBV) genome. A second injection of the same formulation was administered to the animals on day 29. The dosing regimen for the study is recited in the following Table 60:
Each mouse remained on its respective diet through the duration of study. The RNAi agent tested (AD05488) included a modified sequence and an N-acetyl-galactosamine-containing targeting ligand conjugated to the 5′ terminal end of the sense strand. (See Tables 3, […] modified sequences and targeting ligand structures). The injections were performed between the skin and muscle (i.e. subcutaneous injections) into the loose skin over the neck and shoulder area. Serum was collected on days 8, 15, 22, 29 (pre-second dose), 36, 43, 50, and 57. LDLR KO mice were fasted for four hours prior to each collection. On day 15, four (4) LDLR KO mice from Groups 1, 2, and 3 (i.e., the groups being administered the high fat “Western” diet) were sacrificed after serum collection, and on day 29, an additional four (4) LDLR KO mice from Groups 1, 2, and 3 were sacrificed after serum collection, for the purpose of performing mRNA assessments.
Additionally, ANGPTL3 mRNA levels were also assessed. On day 15, four (4) mice were sacrificed from each of Groups 1, 2, and 3. On day 29, an additional four (4) mice were sacrificed from each of Groups 1, 2, and 3. On day 57, all remaining animals from all Groups were sacrificed. At sacrifice, livers were harvested, and approximately 100 mg liver samples from the median lobes were collected and snap-frozen in liquid nitrogen for RNA isolation. Levels of ANGPTL3 mRNA in the mice livers were then measured by RT-qPCR, and normalized to the mRNA levels of the mice in Group 1 (high fat “Western” diet; D5W administration; day 15 sacrifice), the results of which are set forth in the following Table 66: […]

**Q.** Which “Average HDL Normalized to Pre-Treatment” value (ANGPTL3 gene [1]; Day 8) does the source give for “AD05488: RNAi agent duplex: antisense AM07235-AS, sense AM07234-SS (antisense mU*fA*mC*fUmGfAmUfCmAfAmAfUmAfUmGfUmUfGmAfG*mC; sense {NAG37}*[invAb]*mGmCmUmCmAmAmCmAfUfAfUmUmUmGmAmUmCmAmGmUmA*[invAb])” here?
**A.** 0.985

**Q.** And the “Average HDL Normalized to Pre-Treatment” value (ANGPTL3 gene [1]; Day 15)?
**A.** 0.911

**Q.** What about the “Average HDL Normalized to Pre-Treatment” value (ANGPTL3 gene [1]; Day 22) of the same substance?
**A.** 0.849

**Q.** And the “Average HDL Normalized to Pre-Treatment” value (ANGPTL3 gene [1]; Day 29)?
**A.** 0.856

**Q.** What about the “Average HDL Normalized to Pre-Treatment” value (ANGPTL3 gene [1]; Day 35) of the same substance?
**A.** 0.810

**Q.** And the “Average LDL Normalized to Pre-Treatment” value (ANGPTL3 gene [2]; Day 8)?
**A.** 0.971

**Q.** And the “Average LDL Normalized to Pre-Treatment” value (ANGPTL3 gene [2]; Day 15)?
**A.** 0.913

**Q.** What about the “Average LDL Normalized to Pre-Treatment” value (ANGPTL3 gene [2]; Day 22) of the same substance?
**A.** 0.949

**Q.** What about the “Average LDL Normalized to Pre-Treatment” value (ANGPTL3 gene [2]; Day 29) of the same substance?
**A.** 0.853

**Q.** And the “Average LDL Normalized to Pre-Treatment” value (ANGPTL3 gene [2]; Day 35)?
**A.** 0.845

**Q.** What about the “Avg Relative ANGPTL3 mRNA, Normalized to Control” value (ANGPTL3 mRNA; 3.0 mg/kg days 1 and 29, high fat diet, day 57 sacrifice) of the same substance?
**A.** 0.024

**Q.** And the “Avg Relative ANGPTL3 mRNA, Normalized to Control” value (ANGPTL3 mRNA; 3.0 mg/kg days 1 and 29, normal chow, day 57 sacrifice)?
**A.** 0.060

**Q.** What about the “Avg Relative ANGPTL3 mRNA, Normalized to Control” value (ANGPTL3 mRNA; 3.0 mg/kg, high fat diet, day 15 sacrifice) of the same substance?
**A.** 0.019

**Q.** And the “Avg Relative ANGPTL3 mRNA, Normalized to Control” value (ANGPTL3 mRNA; 3.0 mg/kg, high fat diet, day 29 sacrifice)?
**A.** 0.032

**Q.** What about the “reduction in ANGPTL3 mRNA levels” value (ANGPTL3 mRNA; both high fat Western diet and normal chow-fed diet, LDLR KO mice) of the same substance?
**A.** significant reduction
